# Data reported in ChEMBL document CHEMBL1157780, “Synthesis, chiral high performance liquid chromatographic resolution and enantiospecific activity of a potent new geranylgeranyl transferase inhibitor, 2-hydroxy-3-imidazo[1,2-a]pyridin-3-yl-2-phosphonopropionic acid” (J Med Chem, 2010).
# Calls of active or inactive are those of the source. The rule behind the calls is not given here.
# Assays:
# [1] = Inhibition of recombinant RGGT assessed as incorporation of [3H]GGPP into His-tagged canine rab1a after 30 mins
# [2] = test system: J774; test: Inhibition of RGGT-mediated Rab11 prenylation in mouse J774 cells after 24 hrs by Western blot analysis; type: cell-based
# [3] = test system: J774; test: Inhibition of RGGT-mediated Rap1A prenylation in mouse J774 cells after 24 hrs by Western blot analysis; type: cell-based
# [4] = target: T1, Geranylgeranyl transferase type-2 subunit alpha (Homo sapiens) (UniProt Q92696); test: Inhibition of rabbit osteoclast rab11 prenylation after 24 hrs by Western blot analysis; conditions: Oryctolagus cuniculus; target entry is the homologue from another species
# T1 sequence (whole entry): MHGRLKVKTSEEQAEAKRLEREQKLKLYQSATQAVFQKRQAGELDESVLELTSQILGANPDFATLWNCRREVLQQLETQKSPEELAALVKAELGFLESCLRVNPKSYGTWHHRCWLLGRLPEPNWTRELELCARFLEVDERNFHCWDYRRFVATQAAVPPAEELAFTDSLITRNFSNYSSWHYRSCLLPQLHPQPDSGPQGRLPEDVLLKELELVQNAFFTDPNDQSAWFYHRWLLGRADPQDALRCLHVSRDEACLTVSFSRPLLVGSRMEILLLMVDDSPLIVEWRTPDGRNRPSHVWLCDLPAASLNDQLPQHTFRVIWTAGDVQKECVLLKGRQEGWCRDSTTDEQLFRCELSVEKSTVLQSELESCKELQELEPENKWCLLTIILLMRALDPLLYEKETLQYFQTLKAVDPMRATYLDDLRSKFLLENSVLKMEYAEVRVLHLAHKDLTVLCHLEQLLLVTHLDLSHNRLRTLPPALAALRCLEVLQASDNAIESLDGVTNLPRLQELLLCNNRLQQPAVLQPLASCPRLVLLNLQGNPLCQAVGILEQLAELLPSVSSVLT
# [5] = target: T2, Farnesyl pyrophosphate synthase (Homo sapiens) (UniProt P14324); test: Inhibition of human FPPS at 10 uM after 10 mins using [14C]IPP as substrate
# T2 sequence (whole entry): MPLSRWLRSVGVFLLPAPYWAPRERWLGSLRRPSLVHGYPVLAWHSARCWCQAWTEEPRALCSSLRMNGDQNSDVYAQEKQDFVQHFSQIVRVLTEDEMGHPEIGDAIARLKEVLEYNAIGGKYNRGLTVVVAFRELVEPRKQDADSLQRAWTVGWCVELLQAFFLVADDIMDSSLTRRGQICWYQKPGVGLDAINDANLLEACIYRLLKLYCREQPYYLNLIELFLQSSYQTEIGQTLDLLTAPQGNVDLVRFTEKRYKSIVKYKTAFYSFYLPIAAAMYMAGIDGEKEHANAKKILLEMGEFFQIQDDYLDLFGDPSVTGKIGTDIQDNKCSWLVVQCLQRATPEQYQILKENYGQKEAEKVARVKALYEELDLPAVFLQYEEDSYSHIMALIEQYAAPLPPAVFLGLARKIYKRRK
# [6] = target: Protein farnesyltransferase/geranylgeranyltransferase type-1 subunit alpha (Homo sapiens) (UniProt P49354); test: Inhibition of GGTase1 assessed as incorporation of [3H]GGPP into His-tagged canine rab1a at 1 mM after 30 mins
# [7] = target: T3, Geranylgeranyl pyrophosphate synthase (Homo sapiens) (UniProt O95749); test: Inhibition of GGPPS at 1mM after 10 mins using [14C]IPP as substrate by liquid scintillation counting
# T3 sequence (whole entry): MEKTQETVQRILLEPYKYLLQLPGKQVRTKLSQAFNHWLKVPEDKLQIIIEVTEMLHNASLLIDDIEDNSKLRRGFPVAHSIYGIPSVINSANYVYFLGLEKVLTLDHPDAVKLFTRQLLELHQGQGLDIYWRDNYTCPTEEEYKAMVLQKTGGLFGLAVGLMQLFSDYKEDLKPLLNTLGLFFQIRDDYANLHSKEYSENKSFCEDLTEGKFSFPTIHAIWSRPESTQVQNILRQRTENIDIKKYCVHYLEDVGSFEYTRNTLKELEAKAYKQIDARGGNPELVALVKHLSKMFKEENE
# [8] = test system: Osteoclast; test: Antiresorptive activity in rabbit osteoclasts assessed as number of actin rings after 48 hrs using TRITC-phelloidin stain relative to control; type: functional, cell-based; conditions: Oryctolagus cuniculus
# [9] = target: T4, Farnesyl pyrophosphate synthase (Homo sapiens, UniProt P14324); test: Inhibition of human FPPS after 10 mins using [14C]IPP as substrate by liquid scintillation counting
# T4 sequence (P14324 whole entry): T2 sequence (whole entry)
# [10] = test system: J774; test: Cytotoxicity against mouse J774 cells assessed as cell viability after 48 hrs by alamar blue assay; type: functional, cell-based
# [11] = organism: Rattus norvegicus; test: Antiresorptive activity in Schenk growing rat model assessed as inhibition of bone resorption; type: functional
# [12] = Inhibition of recombinant RGGT assessed as incorporation of [3H]GGPP into His-tagged canine rab1a after 20 mins
# [13] = Inhibition of recombinant RGGT by uncompetitive inhibition based Lineweaver-Burke plot using Rab1a as substrate
# [14] = Inhibition of GGTase1 assessed as incorporation of [3H]GGPP into His-tagged canine rab1a after 30 mins
structure (smiles),measurement,setting,value
"O=C(O)C(O)(Cc1cccnc1)P(=O)(O)O (single isomer, unassigned; enantiomer 1) [listing 1 of 2 here]",IC50,[1],39 µM
O=C(O)C(O)(Cc1cnc2ccccn12)P(=O)(O)O (racemic),LED,[2],3 µM
same,LED,[3],> 100 µM
same,Activity,[4],12.5 µM
same,Activity,[5],inactive
O=P(O)(O)C(O)(Cc1cccnc1)P(=O)(O)O,LED,[2],12 µM
same,LED,[3],12 µM
"O=C(O)C(O)(Cc1cnc2ccccn12)P(=O)(O)O (single isomer, unassigned; enantiomer 2)",LED,[2],50 µM
same,Activity,[6],inactive
same,LED,[3],4000 µM
same,Activity,[7],inactive
"O=C(O)C(O)(Cc1cnc2ccccn12)P(=O)(O)O (racemic) [(2-HYDROXY-3-IMIDAZO[1,2-A]PYRIDIN-3-YL-2-PHOSPHONOPROPIONIC ACID (ENANTIONMERS)]",IC50,[8],330 µM
same,IC50,[9],> 10 µM
same,IC50,[10]; j774,47 µM
same,IC50,[1],12.5 µM
same,LED,[11],2.8 mg/kg
"O=C(O)C(O)(Cc1cccnc1)P(=O)(O)O (single isomer, unassigned; enantiomer 2) [listing 1 of 2 here]",IC50,[1],150 µM
"O=C(O)C(O)(Cc1cnc2ccccn12)P(=O)(O)O (single isomer, unassigned; (+))",LED,[2],3 µM
same,Activity,[6],inactive
same,LED,[3],100 µM
same,Activity,[7],inactive
O=C(O)C(O)(Cc1cccnc1)P(=O)(O)O (racemic) [listing 1 of 2 here],LED,[2],100 µM
same,Activity,[4],200 µM
same,Activity,[5],inactive
"O=C(O)C(O)(Cc1cnc2ccccn12)P(=O)(O)O (single isomer, unassigned; (+)) [(2-HYDROXY-3-IMIDAZO[1,2-A]PYRIDIN-3-YL-2-PHOSPHONOPROPIONIC ACID (ENANTIONMERS)]",IC50,[12],1.3 µM
same,IC50,[10]; j774,31 µM
same,IC50,[1],1.1 µM
same,Ki,[13],0.211 µM
same,IC50,[14],> 800 µM
"O=C(O)C(O)(Cc1cccnc1)P(=O)(O)O (single isomer, unassigned; enantiomer 2) [listing 2 of 2 here]",LED,[2],250 µM
"O=C(O)C(O)(Cc1cccnc1)P(=O)(O)O (single isomer, unassigned; enantiomer 1) [listing 2 of 2 here]",LED,[2],63 µM
O=C(O)C(O)(Cc1cccnc1)P(=O)(O)O (racemic) [listing 2 of 2 here],IC50,[8],970 µM
same,IC50,[12],32 µM
same,IC50,[9],> 1000 µM
same,IC50,"[10]; Mus musculus, J774, 48 h",2800 µM
same,IC50,[1],51.7 µM
same,Ki,[13],33.6 µM
same,LED,[11],12 mg/kg
same,IC50,[14],> 2000 µM
O=P(O)(O)C(O)(Cc1cnc2ccccn12)P(=O)(O)O [MINODRONIC ACID],LED,[2],3 µM
same,LED,[3],3 µM
same,IC50,"[10]; Mus musculus, J774, 48 h",3 µM
same,IC50,[1],> 1000 µM
"O=C(O)C(O)(Cc1cnc2ccccn12)P(=O)(O)O (single isomer, unassigned; enantiomer 2) [(2-HYDROXY-3-IMIDAZO[1,2-A]PYRIDIN-3-YL-2-PHOSPHONOPROPIONIC ACID (ENANTIONMERS)]",IC50,[10]; j774,> 800 µM
same,IC50,[1],67.7 µM
